Activity calls are given as the source filed them. The calls are words filed in the database; no cut-off is given here.
assay: DPPH radical scavenging activity at 10 ug after 30 mins by TLC; type: functional

Question: Which Activity does the source give for `CC/C=C/CCCCCCCCCCCCCCC[C@]1(O)CC(=O)C=C[C@@H]1O` here?
Answer: Its Activity is “inactive”.

Question: For `CC/C=C/CCCCCCCCCCCCCc1cccc(O)c1`, which Activity is on record?
Answer: The Activity was “Active”.

Question: For `CC/C=C/CCCCCCCCCCCCCCC[C@@]1(O)CC(=O)C=C[C@@H]1O`, which Activity is on record?
Answer: Its Activity is “inactive”.

Question: Which Activity does the source give for `CC/C=C/CCCCCCCCCCCCC[C@@]1(O)CC(=O)C=C[C@@H]1O` here?
Answer: Its Activity is “inactive”.
